What was measured:
[1] = In vivo bioavailability study, oral capsules, plasma levels by LC-MS; settings: dog; analyte Flu in plasma; oral capsule with 200 mg Flu, fasted Beagle dogs, n=5
Method: Capsules of a 00 size were filled with either 50 wt % Flu-PEtOx nanofibrous material or with pure crystalline Flu. Each capsule contained 200 mg of Flu. These capsules were administered to beagles in 2 different sessions with at least 8 days in between both sessions. The study was approved by the ethical commission for animal testing at Ghent University. Before the dogs were fed the capsules, a fasting time of 12 hours was set. Using an intravenous catheter in the vena cephalica blood samples of 3 ml were collected at different time intervalls of 0.5, 1, 2, 4, 6, 8, 12, 16, 20 and 24 hours after administration. Plasma samples were stored at −20° C. until analyzed using an LC-MS method.
A […] flubendazole nanofibrous amorphous solid dispersion was obtained by the solution electrospinning of PEtOx and Flu in a formic acid solvent system. The process conditions were a tip to collector distance of 15 cm, a flow rate of 0.12 ml/h and a voltage of 27.5 kV. Note that this high flubendazole loading was only reached when a PEtOx wt % was used which is lower compared to the minimal required polymer concentration for solution electrospinning pure PEtOx, as shown in Example 4. […] Concentrations of Flu and its two metabolites, H-Flu and R-Flu, were monitored.

[2] = Sink in vitro dissolution test of flubendazole samples in 0.1 M HCl; assay type: physicochemical; settings: after 10 minutes, sample containing 50 mg flubendazole in 900 ml 0.1 M HCl
Method: Samples were filtered through a 0.45 μm PTFE filter, diluted and consequently measured via UV-Vis spectroscopy. Experiments were performed in triplicate.

COC(=O)Nc1nc2cc(C(=O)c3ccc(F)cc3)ccc2[nH]1 [Flu, Flubendazole]
Cmax [1]: 1.2 ± 0.4 ng/mL
Tmax [1]: 1 ± 0.6 h
Dissolution rate (10 min) [2]: 0.07 ± 0.03 µg/mL/min

Reference: US20250051519A1, “SOLUTION ELECTROSPUN FIBERS, COMPOSITIONS COMPRISING THE SAME AND A PROCESS OF MANUFACTURING THEREOF” (UNIVERSITEIT GENT, priority 2021, published 2025)
